Laboratory results reported in the NIST ThermoML archive (doi:10.1007/s10765-006-0056-z).

Test: molar heat capacity at constant volume; xn = mol fraction of the nth substance listed
Settings: Fluid (supercritical or subcritical phases), Isochoric Heat Capacity Apparatus

CCCCCCCCCC [decane] + O=C=O
Settings	molar heat capacity at constant volume [J/K/mol]
485.62 K, Mass density=375 kg/m3, x1 = 0.178	481.74
486.19 K, Mass density=374.7 kg/m3, x1 = 0.095	337.46
486.48 K, Mass density=201.8 kg/m3, x1 = 0.095	412.09
486.76 K, Mass density=375 kg/m3, x1 = 0.178	484.88
486.96 K, Mass density=131.5 kg/m3, x1 = 0.095	529.99
486.96 K, Mass density=201.8 kg/m3, x1 = 0.095	409.43
487.15 K, Mass density=155 kg/m3, x1 = 0.095	472.85
487.15 K, Mass density=201.8 kg/m3, x1 = 0.095	398.22
487.34 K, Mass density=155 kg/m3, x1 = 0.095	461.86
487.53 K, Mass density=155 kg/m3, x1 = 0.095	453.38
487.72 K, Mass density=155 kg/m3, x1 = 0.095	442.23
487.96 K, Mass density=155 kg/m3, x1 = 0.095	446.71
488.19 K, Mass density=155 kg/m3, x1 = 0.095	447.14
488.49 K, Mass density=176.7 kg/m3, x1 = 0.095	436.9
488.58 K, Mass density=176.7 kg/m3, x1 = 0.095	427.94
488.68 K, Mass density=176.7 kg/m3, x1 = 0.095	434.18
488.82 K, Mass density=339.4 kg/m3, x1 = 0.178	500.32
488.87 K, Mass density=176.7 kg/m3, x1 = 0.095	431.72
489.06 K, Mass density=176.7 kg/m3, x1 = 0.095	425.91
489.44 K, Mass density=339.4 kg/m3, x1 = 0.178	498.78
490.01 K, Mass density=408.8 kg/m3, x1 = 0.178	466.06
490.58 K, Mass density=398.3 kg/m3, x1 = 0.095	337.25
491.54 K, Mass density=281.4 kg/m3, x1 = 0.095	350.21
493.44 K, Mass density=339.4 kg/m3, x1 = 0.178	492.82
493.44 K, Mass density=375 kg/m3, x1 = 0.178	478.92
493.63 K, Mass density=320.2 kg/m3, x1 = 0.095	344.98
494.29 K, Mass density=339.4 kg/m3, x1 = 0.178	493.86
494.39 K, Mass density=375 kg/m3, x1 = 0.178	481.74
494.76 K, Mass density=87 kg/m3, x1 = 0.095	750.57
494.95 K, Mass density=374.7 kg/m3, x1 = 0.095	342.85
495.33 K, Mass density=176.7 kg/m3, x1 = 0.095	423.94
495.52 K, Mass density=241 kg/m3, x1 = 0.095	368.51
495.52 K, Mass density=408.8 kg/m3, x1 = 0.178	468.89
496.56 K, Mass density=131.5 kg/m3, x1 = 0.095	548.39
497.42 K, Mass density=310.8 kg/m3, x1 = 0.178	516
497.51 K, Mass density=310.8 kg/m3, x1 = 0.178	512.93
497.6 K, Mass density=310.8 kg/m3, x1 = 0.178	514.22
499.87 K, Mass density=110.8 kg/m3, x1 = 0.095	615.07
499.87 K, Mass density=155 kg/m3, x1 = 0.095	463.68
500.06 K, Mass density=375 kg/m3, x1 = 0.178	479.47
500.9 K, Mass density=310.8 kg/m3, x1 = 0.178	505.18
500.9 K, Mass density=398.3 kg/m3, x1 = 0.095	339.7
501.75 K, Mass density=310.8 kg/m3, x1 = 0.178	507.27
502.88 K, Mass density=408.8 kg/m3, x1 = 0.178	473.26
503.07 K, Mass density=339.4 kg/m3, x1 = 0.178	489.49
503.82 K, Mass density=339.4 kg/m3, x1 = 0.178	492.32
504.88 K, Mass density=284.3 kg/m3, x1 = 0.178	533.78
505.5 K, Mass density=201.8 kg/m3, x1 = 0.095	397.32
505.96 K, Mass density=284.3 kg/m3, x1 = 0.178	524.24
506.25 K, Mass density=374.7 kg/m3, x1 = 0.095	343.97
506.32 K, Mass density=284.3 kg/m3, x1 = 0.178	521.66
507.56 K, Mass density=320.2 kg/m3, x1 = 0.095	346.42
508.72 K, Mass density=284.3 kg/m3, x1 = 0.178	513.42
509.65 K, Mass density=284.3 kg/m3, x1 = 0.178	513.42
512.22 K, Mass density=339.4 kg/m3, x1 = 0.178	488.69
512.4 K, Mass density=241 kg/m3, x1 = 0.095	370.11
512.96 K, Mass density=339.4 kg/m3, x1 = 0.178	489.49
513.52 K, Mass density=155 kg/m3, x1 = 0.095	469.92
513.7 K, Mass density=176.7 kg/m3, x1 = 0.095	436.2
514.1 K, Mass density=110.8 kg/m3, x1 = 0.095	628.94
515.19 K, Mass density=281.4 kg/m3, x1 = 0.095	353.36
515.37 K, Mass density=398.3 kg/m3, x1 = 0.095	347.33
515.86 K, Mass density=131.5 kg/m3, x1 = 0.095	553.72
516.11 K, Mass density=87 kg/m3, x1 = 0.095	740.97
516.76 K, Mass density=83.3 kg/m3, x1 = 0.178	975.91
517.48 K, Mass density=83.3 kg/m3, x1 = 0.178	984.15
517.59 K, Mass density=374.7 kg/m3, x1 = 0.095	348.19
517.68 K, Mass density=310.8 kg/m3, x1 = 0.178	496.69
518.51 K, Mass density=310.8 kg/m3, x1 = 0.178	499.76
519.25 K, Mass density=155 kg/m3, x1 = 0.095	471.73
520.73 K, Mass density=117.8 kg/m3, x1 = 0.178	788.7
521.28 K, Mass density=110.8 kg/m3, x1 = 0.095	622.54
522.57 K, Mass density=320.2 kg/m3, x1 = 0.095	352.88
523.12 K, Mass density=281.4 kg/m3, x1 = 0.095	355.33
523.67 K, Mass density=164.2 kg/m3, x1 = 0.178	675.66
524.03 K, Mass density=164.2 kg/m3, x1 = 0.178	667.67
524.03 K, Mass density=201.8 kg/m3, x1 = 0.095	397.1
524.22 K, Mass density=320.2 kg/m3, x1 = 0.095	351.33
524.4 K, Mass density=164.2 kg/m3, x1 = 0.178	659.98
524.77 K, Mass density=83.3 kg/m3, x1 = 0.178	982.86
526.6 K, Mass density=117.8 kg/m3, x1 = 0.178	779.17
528.43 K, Mass density=117.8 kg/m3, x1 = 0.178	775.54
529.61 K, Mass density=164.2 kg/m3, x1 = 0.178	637.53
529.71 K, Mass density=117.8 kg/m3, x1 = 0.178	768.84
530.07 K, Mass density=164.2 kg/m3, x1 = 0.178	636.24
530.25 K, Mass density=241 kg/m3, x1 = 0.095	375.44
530.62 K, Mass density=164.2 kg/m3, x1 = 0.178	631.87
530.67 K, Mass density=339.4 kg/m3, x1 = 0.178	492.82
531.4 K, Mass density=339.4 kg/m3, x1 = 0.178	493.86
532.44 K, Mass density=374.7 kg/m3, x1 = 0.095	354.69
532.99 K, Mass density=87 kg/m3, x1 = 0.095	727.63
533.17 K, Mass density=117.8 kg/m3, x1 = 0.178	758.57
533.71 K, Mass density=155 kg/m3, x1 = 0.095	467.68
534.08 K, Mass density=117.8 kg/m3, x1 = 0.178	754.94
535.31 K, Mass density=131.5 kg/m3, x1 = 0.095	565.99
535.39 K, Mass density=83.3 kg/m3, x1 = 0.178	958.14
535.89 K, Mass density=164.2 kg/m3, x1 = 0.178	631.13
536.16 K, Mass density=83.3 kg/m3, x1 = 0.178	972.28
536.98 K, Mass density=83.3 kg/m3, x1 = 0.178	973.82
536.98 K, Mass density=110.8 kg/m3, x1 = 0.095	693.49
537.7 K, Mass density=320.2 kg/m3, x1 = 0.095	358.27
538.25 K, Mass density=281.4 kg/m3, x1 = 0.095	361.63
543.48 K, Mass density=201.8 kg/m3, x1 = 0.095	402.01
543.48 K, Mass density=310.8 kg/m3, x1 = 0.178	509.05
543.84 K, Mass density=176.7 kg/m3, x1 = 0.095	450.93
544.11 K, Mass density=310.8 kg/m3, x1 = 0.178	514.46
544.38 K, Mass density=284.3 kg/m3, x1 = 0.178	517.29
546.37 K, Mass density=117.8 kg/m3, x1 = 0.178	758.81
546.63 K, Mass density=83.3 kg/m3, x1 = 0.178	971.79
547.62 K, Mass density=83.3 kg/m3, x1 = 0.178	992.89
550.12 K, Mass density=87 kg/m3, x1 = 0.095	712.69
550.12 K, Mass density=320.2 kg/m3, x1 = 0.095	360.72
550.48 K, Mass density=281.4 kg/m3, x1 = 0.095	369.42
550.84 K, Mass density=155 kg/m3, x1 = 0.095	462.13
554.06 K, Mass density=164.2 kg/m3, x1 = 0.178	623.38
556.37 K, Mass density=131.5 kg/m3, x1 = 0.095	553.72
556.91 K, Mass density=83.3 kg/m3, x1 = 0.178	997.75
559.75 K, Mass density=241 kg/m3, x1 = 0.095	388.83
560.29 K, Mass density=281.4 kg/m3, x1 = 0.095	373.42
561.17 K, Mass density=176.7 kg/m3, x1 = 0.095	448.69
561.35 K, Mass density=320.2 kg/m3, x1 = 0.095	369.84
568.43 K, Mass density=241 kg/m3, x1 = 0.095	393.53
